Source: ChEMBL document CHEMBL1139187, “Hybrid molecules containing benzo[4,5]imidazo[1,2-d][1,2,4]thiadiazole and alpha-bromoacryloyl moieties as potent apoptosis inducers on human myeloid leukaemia cells” (Bioorg Med Chem Lett, 2007)
Calls of active or inactive are those of the source. The calls are words filed in the database; no cut-off is given here.

What was measured:
Type in all cases: functional, cell-based
HL-60 [1] = assay: Antiproliferative activity against HL60 cells by MTT assay; details: Homo sapiens
U-937 [2] = assay: Antiproliferative activity against human U937 cells by MTT assay
SK-MEL-1 = assay: Antiproliferative activity against human SK-MEL1 cells by MTT assay
HL-60 [3] = assay: Induction of apoptosis in HL60 cells assessed as morphological changes at 3 uM after 4 hrs by phase contrast microscopy; details: Homo sapiens
HL-60 [4] = assay: Induction of apoptosis in HL60 cells assessed as chromatin condensation at 3 uM after 4 hrs by fluorescence microscopy; details: Homo sapiens
HL-60 [5] = assay: Induction of apoptosis in HL60 cells assessed as DNA fragmentation at 3 uM after 4 hrs by gel electrophoresis; details: Homo sapiens
U-937 [6] = assay: Induction of apoptosis in U937 cells assessed as DNA fragmentation at 3 uM after 4 hrs by gel electrophoresis; details: Homo sapiens
HL-60 [7] = assay: Induction of apoptosis in HL60 cells assessed as cytochrome C release at 3 uM by Western blot; details: Homo sapiens
HL-60 [8] = assay: Induction of apoptosis in HL60 cells assessed as caspase 3 cleavage at 3 uM by Western blot; details: Homo sapiens
U-937 [9] = assay: Induction of apoptosis in U937 cells assessed as caspase 3 cleavage at 3 uM by Western blot; details: Homo sapiens
HL-60 [10] = assay: Induction of apoptosis in HL60 cells assessed as PARP cleavage at 3 uM by Western blot; details: Homo sapiens

IC50 (HL-60 [1]) | IC50 (U-937 [2]) | IC50 (SK-MEL-1) | Compound | Activity (HL-60 [3]) | Activity (HL-60 [4]) | Activity (HL-60 [5]) | Activity (U-937 [6]) | Activity (HL-60 [7]) | Activity (HL-60 [8]) | Activity (U-937 [9]) | Activity (HL-60 [10])
1.72 µM | 0.74 µM | 8.95 µM | C=C(Br)C(=O)Nc1ccc2oc(C(=O)NCCCCCCNc3nsc4nc5ccccc5n34)cc2c1 | Active | Active | Active | Active | Active | Active | Active | Active
1.24 µM | 0.91 µM | 8.04 µM | C=C(Br)C(=O)Nc1ccc2sc(C(=O)NCCCCCCNc3nsc4nc5ccccc5n34)cc2c1 | Active | Active | Active | Active | Active | Active | Active | Active

Second part, the molecule before the results:

Compound | IC50 (HL-60 [1]) | IC50 (U-937 [2]) | IC50 (SK-MEL-1) | Activity (HL-60 [3]) | Activity (HL-60 [4]) | Activity (HL-60 [5]) | Activity (U-937 [6]) | Activity (HL-60 [7]) | Activity (HL-60 [8]) | Activity (U-937 [9]) | Activity (HL-60 [10])
C=C(Br)C(=O)Nc1ccc2[nH]c(C(=O)NCCCCCCNc3nsc4nc5ccccc5n34)cc2c1 | 0.55 µM | 0.4 µM | 3.02 µM | Active | Active | Active | Active | Active | Active | Active | Active
C=C(Br)C(=O)Nc1ccc2[nH]c(C(=O)NCCCNc3nsc4nc5ccccc5n34)cc2c1 | 0.29 µM | 0.24 µM | 2.09 µM | Active | Active | Active | Active | Active | Active | Active | Active
C=C(Br)C(=O)Nc1ccc2c(c1)cc(C(=O)NCCCCCCNc1nsc3nc4ccccc4n13)n2C | 0.84 µM | 0.89 µM | 4.5 µM | Active | Active | Active | Active | Active | Active | Active | Active
